{"source": "patent US6924391B2", "about": "“Alpha-amino,-thio,-oxo substituted ketones as phospholipase inhibitors” (Bristol-Myers Squibb Company, priority 2000, dated 2005)", "note": "Counter-ions that a name gives are not always drawn.", "data": [{"smiles": "COCC(=O)C(F)(F)Cc1ccc(OCCN(C)CC(c2ccc(Cl)cc2)c2ccc(Cl)cc2)cc1", "note": "(as salt: hydrochloride) [Example 9, 4-[4-[2-[N-[2-Bis-(4-chlorophenyl)ethyl]-N-methylamino]ethoxy]phenyl]-2,2-difluoro-1-methoxy-2-butanone]", "values": [{"measurement": "melting point", "result": "53 to 62", "unit": "°C"}]}]}
